Results on two compounds are retold here after patent publication US20100120738A1, “ANTI-APOPTOTIC BENZODIAZEPINE RECEPTOR LIGAND INHIBITORS” (priority 2006, published 2010).

Like-named read-outs stand apart in the source and are kept apart here. Where only a bound is given, the exact number is not on record here.

Data set [1] has as its system Bovine capillary endothelial cells. Kind of data set: Cytotoxicity/necrosis of non-irradiated cells (LDH release, field number). The data set is classed as cell-based. As for the experimental part: Bovine capillary endothelial cells were cultured on eight-chamber Labtek slides and exposed to ionizing radiation (20 Gy), which was calibrated using an X-ray exposure meter. […] In control experiments, cells either received no ionizing radiation (sham) or no compound. After 6 h incubation, the cells were fixed in methanol and stained with 5 μg/ml 4,6-diamidino-2-phenylindole (DAPI). DNA was visualized using a Nikon epifluorescence microscope, and apoptosis was scored and expressed as an apoptotic index (% apoptotic cells in a field of 100). […] Field number was also calculated for all other compounds tested as a control (results not shown).
To determine cytotoxicity of the compounds under these conditions, duplicate samples of the cells receiving a dose of compound at each concentration tested in the absence of a dose of ionizing radiation were assayed for release of LDH into the culture medium.

The nature of data set [2]: Oral bioavailability in vivo, plasma levels by LC-MS/MS after intragastric gavage. The arrangement: species or system rat. As for the experimental part: FIG. 18 is a graphical representation showing the bioavailability in vivo for the compounds {[{(Porphine-5,15-diyl)bis[cyclopropyl-diyl]}](2-)-N^21,N^22,N^23,N^24} manganese(III) acetate (EUK-418) and {[{(Porphine-5,15-diyl)bis[benzyl-diyl]}](2-)-N^21,N^22,N^23,N^24} manganese(III) acetate (EUK-423) in rats. Fasted and fed Sprague-Dawley rats were dosed by intragastric gavage with either 4 mg/kg EUK-418 or 2 mg/kg EUK-423. At the times indicated on the x-axis, plasma was obtained from the animals and the concentrations of compounds determined by LC-MS/MS.
Fasted and fed Sprague-Dawley rats were dosed by intragastric gavage with either 4 mg/kg EUK-418 or 2 mg/kg EUK-423. At time points up to 7 hr post-administration, animals were sacrificed, their blood collected over heparin, plasma samples prepared by centrifugation, and plasma levels of the compounds were determined by LC-MS/MS.

Data set [3] can be described thus: Stability in USP simulated gastric fluid (SGF). The data set is classed as in vitro ADME. To be noted: 37° C., pH approx. 1.2. The source says: Aliquots of SGF were withdrawn and intact compound quantitated by HPLC-UV.
Data set [4] concerns cultured mesencephalic tissue slices. Kind of data set: MPP+ induced neurodegeneration in cultured mesencephalic tissue slices (LDH release). It counts as cell-based, rat. The settings on record: 20 μM MPP+; compound 100 nM, 1.0 μM, 10 μM; FIG. 17. As for the experimental part: FIG. 17 is a graphical representation showing the effects of exemplary low molecular weight metalloporphyrin compounds of the present invention on MPP+ induced neurodegeneration in cultured mesencephalic tissue slices. Mesencephalic tissue slices were prepared from PND 3-5 rats and maintained in culture for 2 weeks. The tissue slices were incubated with a porphyrin compound as indicated on the x-axis for 6 hours before adding 20 μM MPP+ to induce neuronal apoptosis. Concentrations of each porphyrin compound tested were 100 nM ? 1.0 μM ? and 10 μM ? Following a further incubation for 48 hours, the slices were collected and the level of lactate dehydrogenase (LDH) released into the medium was determined.

The next data set deals with PC12 cells. Kind of data set: Protection against STS-induced apoptosis in PC12 cells (XTT viability assay). It counts as cell-based, rat. As for the experimental part:
Rat pheochromocytoma (PC12) cells were cultured in collagen-coated 96-well plates according to directions provided by the American Type Culture Collection. Staurosporine was added at various concentrations sufficient to induce apoptosis. Test compounds were added together with the staurosporine. Cells were incubated overnight at 37° C., 5% CO2. After 18-24 hours, test media was removed and cell viability was determined using the XTT viability assay described by Baker et al., J. Pharmacol. Exp, Therapeutics 284, 215-221, 1998, the contents of which are incorporated herein by reference.
For orientation: Formazan colour is commonly taken as a measure of viable cells.

Data set [5] concerns Bovine capillary endothelial cells. Kind of data set: Protection against radiation-induced apoptosis (DAPI apoptotic index). The data set is classed as cell-based. The settings on record: low doses; FIG. 13 and FIG. 14. As for the experimental part: Bovine capillary endothelial cells were cultured on eight chamber Labtek slides and exposed to ionizing radiation (20 Gy) for 6 hours. After this time, cells were either left untreated or treated with compound at the concentration indicated on the x-axis. Cells were then fixed in methanol and stained with 5 μg/ml DAPI and DNA was visualized using a Nikon epifluorescence microscope, and apoptosis scored and expressed as an apoptotic index according to the percentage of apoptotic cells in a field of 100 cells. Open bars indicate apoptotic index following irradiation. Hatched bars indicate apoptotic index for control cells not receiving a dose of ionizing radiation.
Bovine capillary endothelial cells were cultured on eight-chamber Labtek slides and exposed to ionizing radiation (20 Gy), which was calibrated using an X-ray exposure meter. […] In control experiments, cells either received no ionizing radiation (sham) or no compound. After 6 h incubation, the cells were fixed in methanol and stained with 5 μg/ml 4,6-diamidino-2-phenylindole (DAPI). DNA was visualized using a Nikon epifluorescence microscope, and apoptosis was scored and expressed as an apoptotic index (% apoptotic cells in a field of 100).

A short description of data set [6]: Lipophilicity by octanol partitioning. The data set is classed as physicochemical. The settings on record: octanol-water. As for the experimental part:
To indicate the likelihood that the compounds will cross lipid membranes and be absorbed once administered by oral means, their lipophilicities were determined by octanol partitioning. […] Quantitation was performed by HPLC-UV.

Data set [7] can be described thus: Brain uptake (brain level over plasma level). The data set is classed as in vivo. To be noted: above 20 ul/g indicates delivery across the blood-brain barrier. As for the experimental part: In further studies, compounds are administered orally to animals as described above, or alternatively, by daily i.p. injection for up to five days at concentrations of about 0.3 mg/kg body weight, 3.0 mg/kg and 30 mg/kg. The animals are then sacrificed and their brains removed and snap-frozen in liquid nitrogen. The brains are homogenized in methanol containing 5% TCA, and the soluble fraction is prepared by centrifugation.
Levels of compounds in the brain tissue are determined by LC-MS (HPLLC, Waters; Mass Spectrometer, Micromass Quattro). The half-life of each compound administered to the animals is determined over a period of time from about 5 minutes up to about 2 days.
Brain bioavailability is determined by calculating brain uptake at all time points. Brain uptake is the ratio of brain levels (as moles/g tissue) over plasma levels (as […] and is expressed as ul/g. One gram of brain tissue contains approximately 20 ul of plasma. Thus, any brain uptake value above 20 ul/g is indicative of delivery across the blood-brain barrier to the brain parenchyma. For example, the brain uptake values for EUK-418 are in excess of about 100 ul/g.

Data set [8] in a line: Superoxide dismutase (SOD) activity. The data set is classed as biochemical.
Data set [9] can be described thus: Plasma recovery after oral dose (another study). It counts as in vivo. To be noted: 3.5 mg/kg dose administered orally; not shown.
[10] abbreviates: FIG. 12, at up to about 5 μM concentration, toxicity blunts protection at high concentrations.
The mark [11] stands for this setting: cuvette format, read-out: Cuvette IC50.
The mark [12] stands for this setting: microplate format, read-out: Microplate IC50.
[13] abbreviates: FIG. 12, among compounds tested.

For the compound `C1=Cc2nc1cc1ccc([n-]1)c(C1CC1)c1nc(cc3ccc([n-]3)c2C2CC2)C=C1.CC(=O)[O-].[Mn+3]` [EUK-418, {[{(Porphine-5,15-diyl)bis[cyclopropyl-diyl]}](2-)-N^21,N^22,N^23,N^24} manganese(III) acetate], the “necrosis at the protective concentration” value in data set [1] (3 μM EUK-418, about 3-10 μM EUK-423) is “failed to induce noticeable necrosis”. Further, the “concentration causing significant increase in field number for control cells, indicating cytotoxicity” value in data set [1] (control cells without ionizing radiation) was not below 30 µM. Besides, the “effect of fasting of animals on plasma concentration” value in data set [2] (4 mg/kg intragastric gavage) is “increase plasma concentration”. For the same compound, the “plasma concentration to which compound declined for the assayed period” value in data set [2] (4 mg/kg intragastric gavage, fasted rats, up to 7 hr) was “about 100 ng/ml”. In data set [2] (intragastric gavage, 4 mg/kg EUK-418 or 2 mg/kg EUK-423), the “plasma time course” value is reported as “increased rapidly in serum of fasted rats”. Also, the “found in plasma / bioavailable after oral administration” value in data set [2] (intragastric gavage, 4 mg/kg EUK-418 or 2 mg/kg EUK-423, fasted and fed rats) is “bioavailable in vivo”. For the same compound, in [3], the “Percentage remaining after 90 mins in SGF” value was 92.2%. Also, the “prevention of cytotoxicity induced by MPP+” value in [4] is reported as “prevent cytotoxicity”. Further, the “effect on staurosporine-induced apoptosis of PC12 cells” value in the data set with PC12 cells (FIG. 11) and in the data set with PC12 cells (setting [10]) was “effectively reduce apoptosis” throughout. The “protection of cells exposed to ionizing radiation” value in data set [5] is “protected”. In addition, the “Log10 P value” in [6] is 0.548 ± 0.009. In addition, the “P value (octanol partitioning coefficient)” value in data set [6] came out at 3.53 ± 0.14. For the same compound, in [7], the “brain uptake value (brain level / plasma level)” value was more than 100 µL/g. The half-inhibitory concentration (IC50) (as a rule, the concentration at which inhibition is half-maximal) in data set [8] (setting [11]) worked out at 8.28 µM; in data set [8] (setting [12]) it was 0.382 µM.

Turning to `C1=Cc2nc1cc1ccc([n-]1)c(C1CCOCC1)c1nc(cc3ccc([n-]3)c2C2CCOCC2)C=C1.[Cl-].[Mn+3]` [EUK-451, {[{(Porphine-5,15-diyl)bis[4-Tetrahydropyrano-diyl]}](2-)-N^21,N^22,N^23,N^24} manganese(III) chloride], the recovery from plasma entry in data set [9] is listed as “recovered from plasma at low levels”. In [3], the “Percentage remaining after 90 mins in SGF” value was 100%. Besides, in the data set with PC12 cells (setting [13]), the “relative activity against STS-induced apoptosis” value is “highest activity” and the “relative toxicity in PC12 model” value is reported as “lowest toxicity”. Further, the “effect on staurosporine-induced apoptosis of PC12 cells” value in the data set with PC12 cells (setting [10]) is “effectively reduce apoptosis”. In [6], the “Log10 P value” is −0.660 ± 0.011 and the “P value (octanol partitioning coefficient)” value is 0.219 ± 0.005. Moreover, the IC50 in data set [8] (setting [11]) was 29.1 µM. The half-inhibitory concentration (IC50) in [8] (setting [12]) is 2.39 µM.
